Data set [1] in a line: Solubility. It is filed as physicochemical.
Data set [2] concerns hyperacetylation of tubulin, H3K9 and H3K27. Nature of the data set: Western blot of tubulin and histone H3 hyperacetylation in B16-F10 cells. Type of data set: cell-based, mouse. To be noted: SAHA 100 nM. An excerpt:
(§1) B16-F10 cells are responsive to 1,25D analogues[45] and HDACi[46],[47] and are therefore widely used in preclinical studies of melanoma solid tumor growth and metastases.[48] Although curable when treated early, melanoma is fatal when invasive. The American Cancer Society projected 97,610 new invasive melanoma cases in the US in 2023 and 7990 deaths. Current treatment options include chemotherapy, surgery, immunotherapy, or single agents targeting mutated genes such as B-RAF or C-KIT.[49]
After 6 h treatments, 4T1, 4T07, or B16-F10 cells were solubilized in lysis buffer (20 mM Tris, pH 8, 150 mM NaCl, 1% Triton X-100, 3.5 mM SDS, and 13 mM deoxycholic acid), and proteins were separated on a 4–15% Tris/glycine/SDS gel (Bio-Rad). Then, the proteins were transferred to a nitrocellulose membrane, followed by blocking in 5% skim milk in Tris-buffered saline (TBS, 1×) solution. […] Finally, signals were detected using Clarity ECL substrates (Bio-Rad) and a ChemiDoc Imaging System. Changes in protein levels were quantified relative to control using Image Lab software (version 6.0.1) after normalization to GAPDH. […]
Figure S2. […] Quantification of the analyses of hyperacetylation in B16-F10 cells of tubulin, H3K9 and H3K27. […]
(In western blotting, separated proteins are transferred to a membrane and probed.)

Data set [3] is described as follows: in vivo. To be noted: BALB/c, mouse, ip.
Data set [4] addresses T1, HDAC7 (Homo sapiens, UniProt Q8WUI4).
T1 sequence (Q8WUI4 1-952): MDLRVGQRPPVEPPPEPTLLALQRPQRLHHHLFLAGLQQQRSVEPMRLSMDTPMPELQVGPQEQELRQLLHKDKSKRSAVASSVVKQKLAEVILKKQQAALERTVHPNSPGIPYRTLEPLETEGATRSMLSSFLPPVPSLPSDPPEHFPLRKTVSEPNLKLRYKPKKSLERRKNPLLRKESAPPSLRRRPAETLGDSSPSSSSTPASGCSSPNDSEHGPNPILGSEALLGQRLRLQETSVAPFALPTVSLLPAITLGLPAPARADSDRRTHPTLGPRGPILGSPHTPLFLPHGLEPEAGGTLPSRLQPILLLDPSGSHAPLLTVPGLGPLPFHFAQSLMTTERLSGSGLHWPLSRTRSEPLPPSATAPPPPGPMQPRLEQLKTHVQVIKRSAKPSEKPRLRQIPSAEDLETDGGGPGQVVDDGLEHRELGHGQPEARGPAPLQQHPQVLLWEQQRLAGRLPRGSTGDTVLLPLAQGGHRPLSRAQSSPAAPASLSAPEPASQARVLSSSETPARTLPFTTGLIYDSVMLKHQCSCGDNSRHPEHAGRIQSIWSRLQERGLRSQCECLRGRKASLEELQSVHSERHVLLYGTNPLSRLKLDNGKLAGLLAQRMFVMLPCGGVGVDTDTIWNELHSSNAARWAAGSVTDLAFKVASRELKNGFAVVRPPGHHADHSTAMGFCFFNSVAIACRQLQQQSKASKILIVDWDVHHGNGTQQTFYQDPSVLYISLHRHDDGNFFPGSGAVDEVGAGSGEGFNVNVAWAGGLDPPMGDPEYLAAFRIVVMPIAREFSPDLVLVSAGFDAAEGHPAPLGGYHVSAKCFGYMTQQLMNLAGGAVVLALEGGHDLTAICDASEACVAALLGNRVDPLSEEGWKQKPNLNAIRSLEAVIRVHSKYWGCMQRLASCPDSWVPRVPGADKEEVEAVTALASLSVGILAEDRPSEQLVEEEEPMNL
Nature of the data set: Biochemical assay for HDAC inhibition, HDAC7. The following applies: read-out: IC50 HDAC7; Table 1, purified enzyme; unit inferred.

The target of data set [5] is T2, VDR (Mus musculus, UniProt P48281).
T2 sequence (P48281 1-422): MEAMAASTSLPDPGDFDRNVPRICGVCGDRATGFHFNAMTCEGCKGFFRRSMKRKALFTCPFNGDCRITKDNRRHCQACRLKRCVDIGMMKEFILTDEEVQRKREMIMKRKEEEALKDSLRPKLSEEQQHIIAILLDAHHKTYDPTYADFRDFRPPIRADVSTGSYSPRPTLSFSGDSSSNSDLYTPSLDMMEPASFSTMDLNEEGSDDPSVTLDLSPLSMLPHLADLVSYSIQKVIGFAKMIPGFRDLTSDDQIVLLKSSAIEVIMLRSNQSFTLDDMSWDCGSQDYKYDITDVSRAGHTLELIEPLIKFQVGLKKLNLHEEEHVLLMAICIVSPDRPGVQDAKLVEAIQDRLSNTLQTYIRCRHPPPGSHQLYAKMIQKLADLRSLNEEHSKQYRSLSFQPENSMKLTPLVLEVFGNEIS
Kind of data set: Cyp24a1 induction in B16-F10 melanoma cells. It is filed as cell-based. The arrangement: endogenous in cells; host or cells: mouse B16-F10 melanoma cells. To be noted: Figure S2A.
Description: as §1
RNA extraction was performed with the FavorPrep tissue total RNA mini kit (FAVORGEN Biotech Corporation FATRK 001) as per manufacturer’s instructions. cDNA was obtained from 1 μg of RNA using 5× All-in-One RT MasterMix (Applied Biological Materials (abm) Inc. G485) and diluted 5 times. qPCR was performed with BrightGreen 2× q-PCR MasterMix (abm MasterMix-LR-XL) on a Roche LightCycler 96 system. Expression of targeted genes was normalized to 18 s.
Figure S2. A. Analysis of Cyp24a1 induction by ZG126, DK406, AM193 along with 1,25D and SAHA as controls in B16-F10 cells. B. Western blots analyzing the effects of 1,25D, SAHA and hybrids on hyperacetylation of tubulin, H3K9 and H3K27 in B16-F10 cells. C. Quantification of the analyses of hyperacetylation in B16-F10 cells of tubulin, H3K9 and H3K27. D. Assessment of cytotoxicity in B16-F10 […]
(1 picture or pasted object on this page, not shown here)

By solubility is commonly meant the concentration that dissolves in the medium under given conditions. Low values mean a poorly soluble substance, high ones a readily soluble substance. For orientation: IC50 means the point on the concentration scale where inhibition reaches its midpoint.

SMILES strings stand for the structures. ≈ marks a conversion by molar mass, not a printed value.

As for `CCC(CC)(c1ccc(C(=O)NCCCCC(=O)NO)cc1)c1ccc(OCC(O)C(C)(C)C)c(C)n1` (centres unmarked) [ZG-126, 4-(3-(5-(2-Hydroxy-3,3-dimethylbutoxy)-6-methylpyridin-2-yl)pentan-3-yl)-N-(5-(hydroxyamino)-5-oxopentyl)benzamide], the solubility in data set [1] was found to be 9.19 µg/mL (≈ 17.9 µM). Besides, in data set [2], the “tubulin acetylation and histone hyperacetylation” value is “comparable to or greater than that induced by a saturating concentration of SAHA”. The same compound displayed an MTD in data set [3] of 10 mg/kg. In data set [4], the IC50 amounted to 55.4 µM. Also, in data set [5], the Cyp24a1 induction result was “mimicked”.

These data come from PMC11249012 (Journal of Medicinal Chemistry, 2024).
